This note sets out measurements from patent publication US20080090805A1, “CB-1 MODULATING COMPOUNDS AND THEIR USE” (ACADIA PHARMACEUTICALS INC., priority 2005, published 2008).

Each structure is given as a SMILES string.

Data set [1] in a line: in vitro. The settings on record: human, microsomes, pH 7.4.
A short description of data set [2]: in vitro. The settings on record: rat, microsomes, pH 7.4.
The target of data set [3] is T1, hERG (Homo sapiens, UniProt Q12809). The data set is described as follows: in vitro. The settings on record: pH 7.4.
T1 sequence (Q12809 whole entry): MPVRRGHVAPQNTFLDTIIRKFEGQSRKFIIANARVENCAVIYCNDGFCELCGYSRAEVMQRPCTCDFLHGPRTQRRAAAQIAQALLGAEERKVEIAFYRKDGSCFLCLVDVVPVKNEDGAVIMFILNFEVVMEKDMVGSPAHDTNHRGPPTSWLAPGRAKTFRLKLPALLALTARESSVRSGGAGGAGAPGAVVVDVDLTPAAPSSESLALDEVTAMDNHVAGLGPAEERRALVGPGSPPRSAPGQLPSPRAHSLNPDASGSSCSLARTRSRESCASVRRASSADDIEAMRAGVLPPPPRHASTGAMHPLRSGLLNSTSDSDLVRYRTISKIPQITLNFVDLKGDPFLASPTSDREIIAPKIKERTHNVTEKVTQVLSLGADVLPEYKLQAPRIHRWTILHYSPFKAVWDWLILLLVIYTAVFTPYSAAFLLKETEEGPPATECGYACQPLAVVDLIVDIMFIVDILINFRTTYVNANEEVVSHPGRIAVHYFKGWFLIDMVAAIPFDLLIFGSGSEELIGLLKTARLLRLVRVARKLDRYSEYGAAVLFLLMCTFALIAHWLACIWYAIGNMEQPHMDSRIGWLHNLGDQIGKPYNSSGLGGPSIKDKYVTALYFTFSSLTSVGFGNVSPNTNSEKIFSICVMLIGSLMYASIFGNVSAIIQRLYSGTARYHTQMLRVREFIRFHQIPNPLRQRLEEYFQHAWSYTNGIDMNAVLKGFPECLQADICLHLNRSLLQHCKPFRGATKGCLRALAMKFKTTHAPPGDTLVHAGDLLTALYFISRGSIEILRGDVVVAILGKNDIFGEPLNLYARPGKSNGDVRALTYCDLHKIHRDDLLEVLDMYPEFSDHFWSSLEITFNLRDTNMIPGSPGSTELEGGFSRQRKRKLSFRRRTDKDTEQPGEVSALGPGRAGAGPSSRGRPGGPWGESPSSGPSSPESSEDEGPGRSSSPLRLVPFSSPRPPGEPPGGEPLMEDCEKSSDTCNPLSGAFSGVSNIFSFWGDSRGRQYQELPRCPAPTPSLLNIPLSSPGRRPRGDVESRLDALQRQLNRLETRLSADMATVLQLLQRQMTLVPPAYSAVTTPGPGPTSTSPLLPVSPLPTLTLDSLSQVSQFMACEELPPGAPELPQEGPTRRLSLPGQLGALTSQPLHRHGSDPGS
For data set [4], the system named is fasted Sprague-Dawley rats. The data set is described as follows: Acute feeding study. Type of data set: in vivo. The following applies: Table 3 feeding data. The procedure:
Male, Sprague-Dawley rats (90-120 g) served as subjects for these studies. Rats were fasted for a period of 16 hrs (water was always available). After the fasting period, test compounds were administered either intraperitoneally (ip) or orally (po). Immediately following compound administration, the rats were returned to their home cage. Following 30 min after compound administration, the rats were removed from their home cages and placed individually into clean cages with a pre-measured amount of food. Food weights were obtained (to the nearest 0.1 g) at various time points. Food consumption was monitored for a period of up to 2 hrs (i.e., 2.5 hr after test compound administration).

The nature of data set [5]: in vitro. The following applies: mouse, microsomes, pH 7.4.
In another data set the target is CB1 (mutant) (Homo sapiens, UniProt P21554). The data set is described as follows: R-SAT functional receptor assay, CB1 (mutant, truncated after amino acid 417). The following applies: Table 1, CB1 (mutant); for IC50: inhibition of constitutive receptor response, read-out: pIC50 (converted); for % Inhibition: relative to the ligand SR141716 (100%). Type of data set: cell-based.
Chain of CB1 (mutant) (P21554 1-417, change not shown): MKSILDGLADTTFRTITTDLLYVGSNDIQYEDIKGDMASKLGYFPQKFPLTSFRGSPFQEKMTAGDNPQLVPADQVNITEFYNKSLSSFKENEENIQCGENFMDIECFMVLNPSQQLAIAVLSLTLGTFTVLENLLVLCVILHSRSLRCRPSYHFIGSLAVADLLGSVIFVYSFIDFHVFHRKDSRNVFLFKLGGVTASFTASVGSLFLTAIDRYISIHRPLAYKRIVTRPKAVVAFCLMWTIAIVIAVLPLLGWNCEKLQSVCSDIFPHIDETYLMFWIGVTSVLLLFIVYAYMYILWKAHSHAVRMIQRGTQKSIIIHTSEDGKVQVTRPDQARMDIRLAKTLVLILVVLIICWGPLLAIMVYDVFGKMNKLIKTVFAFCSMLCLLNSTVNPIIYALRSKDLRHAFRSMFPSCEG

The next data set concerns the target CB1 (wild-type) (Homo sapiens, UniProt P21554). The data set is described as follows: R-SAT functional receptor assay, CB1 (wild-type). Type of data set: cell-based. The settings on record: for IC50: Table 1, inhibition of constitutive receptor response; for Emax: Table 1, relative to the ligand SR141716 (100%), read-out: % Inhibition.
In a further data set the target is native CB1 receptors (Rattus norvegicus, UniProt P20272). The experiment in a line: CB1 receptor rat binding assay ([3H]SR141716A, rat brain membranes). The settings on record: rat brain membranes; 3 nM [3H]SR141716A; read-out: Rat Brain pKi (converted).
Chain of native CB1 receptors (P20272 whole entry): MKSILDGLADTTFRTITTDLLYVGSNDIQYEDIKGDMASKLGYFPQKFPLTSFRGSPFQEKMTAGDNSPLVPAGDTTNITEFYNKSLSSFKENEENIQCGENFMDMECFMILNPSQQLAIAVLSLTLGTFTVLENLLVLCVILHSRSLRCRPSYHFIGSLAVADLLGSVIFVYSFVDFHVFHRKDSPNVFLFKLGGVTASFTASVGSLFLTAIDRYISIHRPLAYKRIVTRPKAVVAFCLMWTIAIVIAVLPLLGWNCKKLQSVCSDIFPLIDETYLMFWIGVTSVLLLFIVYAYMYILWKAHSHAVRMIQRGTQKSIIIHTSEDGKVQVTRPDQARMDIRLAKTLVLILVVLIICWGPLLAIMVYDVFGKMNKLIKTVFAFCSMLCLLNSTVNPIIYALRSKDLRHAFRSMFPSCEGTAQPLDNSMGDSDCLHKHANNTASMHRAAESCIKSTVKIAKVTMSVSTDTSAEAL
In data set [6] the target is T1, hERG. The data set is described as follows: HERG safety study (whole cell recordings, CHO cells). The settings on record: CHO cells stably expressing hERG channels, pH 7.4.

Chain of CB1 (wild-type) (P21554 whole entry): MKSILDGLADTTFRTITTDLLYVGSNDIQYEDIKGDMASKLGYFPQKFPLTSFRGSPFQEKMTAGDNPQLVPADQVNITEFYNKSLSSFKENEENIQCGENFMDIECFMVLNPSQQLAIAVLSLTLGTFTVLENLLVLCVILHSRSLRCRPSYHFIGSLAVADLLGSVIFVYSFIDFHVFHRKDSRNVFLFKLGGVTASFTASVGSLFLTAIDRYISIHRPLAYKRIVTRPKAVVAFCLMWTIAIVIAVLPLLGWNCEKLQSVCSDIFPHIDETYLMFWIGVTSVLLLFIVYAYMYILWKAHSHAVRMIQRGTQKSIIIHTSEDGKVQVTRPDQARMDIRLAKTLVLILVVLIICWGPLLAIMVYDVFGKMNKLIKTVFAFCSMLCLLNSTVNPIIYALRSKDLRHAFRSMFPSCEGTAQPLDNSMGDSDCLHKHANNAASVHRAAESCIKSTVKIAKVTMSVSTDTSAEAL

Regarding `COc1cccc(C2=Nc3cc(C(=O)NC4CCC(F)(F)CC4)ccc3Sc3ccccc32)n1` [drawing 1673], the results for the microsomal CLint at 1 μM in “in vitro [1]” and in “in vitro [2]” were 25 µL/min/mg and 158 µL/min/mg, respectively.

`CC(C)CNC(=O)c1ccc2c(c1)N=C(c1ccc(Br)cc1)c1ccccc1S2` [drawing 1791]: the results for the microsomal CLint at 1 μM in “in vitro [1]” and in “in vitro [2]” were 19 µL/min/mg and 115 µL/min/mg, respectively.

Take `CCN(CCNC(=O)c1ccc2c(c1)N=C(c1cccc(Cl)c1)c1ccccc1S2)c1ccccc1` [drawing 1751]: the values for the intrinsic clearance (microsomal CLint) at 1 μM in the data set “in vitro [1]” and in the data set “in vitro [2]” were 157 µL/min/mg and 368 µL/min/mg, respectively.

In the case of `O=C(NCCCc1ccccc1)c1ccc2c(c1)N=C(c1ccc(Cl)cc1)c1ccccc1S2` [drawing 1680], the microsomal CLint at 1 μM in “in vitro [1]” turned out to be 73 µL/min/mg; in “in vitro [2]” it was 131 µL/min/mg.

Regarding `CC(C)CCNC(=O)c1ccc2c(c1)N=C(c1ccc(F)cc1)c1ccccc1S2` [drawing 1771], the figures for the microsomal CLint at 1 μM in the data set “in vitro [1]” and in “in vitro [2]” were 52 µL/min/mg and 214 µL/min/mg, respectively.

`O=C(NN1CCCCC1)c1ccc2c(c1)N=C(c1ccc(Cl)s1)c1ccccc1S2` [drawing 1829] came in with an inhibition at 1 µM at hERG [3] of 66%.

For `O=C(NN1CCCCCC1)c1ccc2c(c1)N=C(c1cccc(F)c1)c1ccccc1S2` [drawing 1827], on hERG [3], the inhibition at 1 µM was found to be 88%.

`O=C(NCc1cccnc1)c1ccc2c(c1)N=C(c1ccc(Cl)c(Cl)c1)c1ccccc1S2` [drawing 541] had a Feeding ID50 in [4] of 14 mg/kg.

`O=C(NN1CCCCC1)c1ccc2c(c1)N=C(c1ccc(Cl)s1)c1ccccc1S2` [drawing 1660]: the microsomal CLint at 1 μM in the data set “in vitro [1]” turned out to be 32 µL/min/mg; in the data set “in vitro [2]”, 148 µL/min/mg; in “in vitro [5]”, 227 µL/min/mg.

Compound `CC(C)CCNC(=O)c1ccc2c(c1)N=C(c1cccc(Cl)c1)c1ccccc1S2` [drawing 538] gave a Feeding ID50 in data set [4] of 5.3 mg/kg.

Consider `Cc1ccc(N2CCN(C(=O)c3ccc4c(c3)N=C(C3CCCCC3)c3ccccc3S4)CC2)c(C)c1` [Example 18, (11-Cyclohexyl-dibenzo[b,f][1,4]thiazepin-8-yl)-[4-(2,4-dimethyl-phenyl)-piperazin-1-yl]methanone], for which, on CB1 (mutant), the IC50 was 0.2 µM and the “% Inhibition” value is on record as 99%. For the same compound, at CB1 (wild-type), the IC50 was 0.0398 µM and the Emax was 99%.

For `O=C(NN1CCCCCC1)c1ccc2c(c1)N=C(c1cccc(F)c1)c1ccccc1S2` [drawing 1693], the values for the microsomal CLint at 1 μM in “in vitro [1]”, in “in vitro [2]” and in the data set “in vitro [5]” were 84 µL/min/mg, 241 µL/min/mg and 160 µL/min/mg, respectively.

On to `O=C(NCc1ccc(F)cc1)c1ccc2c(c1)N=C(c1ccc(Cl)cc1)c1ccccc1S2` [drawing 539], for which the Feeding ID50 in data set [4] turned out to be 8 mg/kg.

In the case of `O=C(NCCc1ccccc1)c1ccc2c(c1)N=C(c1cccc(Cl)c1)c1ccccc1S2` [drawing 1763], the results for the microsomal CLint at 1 μM in the data set “in vitro [1]” and in the data set “in vitro [2]” were 53 µL/min/mg and 110 µL/min/mg, respectively.

On to `CC(C)CNC(=O)c1ccc2c(c1)N=C(c1ccc(Cl)c(Cl)c1)c1ccccc1S2` [drawing 540], for which the Feeding ID50 in [4] was determined as 8.4 mg/kg.

Consider `CC(C)CNC(=O)c1ccc2c(c1)N=C(c1ccc(Cl)s1)c1ccccc1S2` [Example 11, 11-(5-Chlorothiophen-2-yl)-dibenzo[b,f][1,4]thiazepine-8-carboxylic acid isobutylamide], for which, at CB1 (mutant), the IC50 is 0.126 µM and the “% Inhibition” value came to 95%. At CB1 (wild-type), the IC50 was 0.0158 µM and the Emax amounted to 84%. The Ki at native CB1 receptors was 0.01 µM.

With `O=C(NCc1ccccc1Cl)c1ccc2c(c1)N=C(c1ccccc1F)c1ccccc1S2` [drawing 1794], the microsomal CLint at 1 μM in “in vitro [1]” amounted to 59 µL/min/mg; in “in vitro [2]” it was 181 µL/min/mg.

As to `O=C(NC1CCC(F)(F)CC1)c1ccc2c(c1)N=C(c1cccc(Cl)c1)c1ccccc1S2` [drawing 1715], the intrinsic clearance (microsomal CLint) at 1 μM in “in vitro [1]” is 3 µL/min/mg; in “in vitro [2]” it was 81 µL/min/mg.

Take `CC(C)CNC(=O)c1ccc2c(c1)N=C(c1ccc(Cl)cc1)c1ccccc1S2` [drawing 1759]: the microsomal CLint at 1 μM worked out at 12 µL/min/mg in the data set “in vitro [1]”, 56 µL/min/mg in the data set “in vitro [2]” and 83 µL/min/mg in “in vitro [5]”.

Turning to `O=C(NCc1ccccc1Cl)c1ccc2c(c1)N=C(c1ccc(Cl)cc1)c1ccccc1S2` [drawing 1782], the microsomal CLint at 1 μM is 17 µL/min/mg in “in vitro [1]” and 33 µL/min/mg in the data set “in vitro [2]”.

On to `O=C(NN1CCCCC1)c1ccc2c(c1)N=C(c1ccc(F)cc1)c1ccccc1S2` [drawing 1685], for which the microsomal CLint at 1 μM in “in vitro [1]” came to 61 µL/min/mg; in “in vitro [2]” it was 96 µL/min/mg.

In turn, `CCCCNC(=O)c1ccc2c(c1)N=C(c1ccc(Cl)cc1)c1ccccc1S2` [drawing 536] had a Feeding ID50 in [4] of 2.4 mg/kg.

As to `CC(CNC(=O)c1ccc2c(c1)N=C(c1ccc(F)cc1)c1ccccc1S2)c1ccccc1` (stereo not shown) [drawing 1797], the intrinsic metabolic clearance (microsomal CLint) at 1 μM in the data set “in vitro [1]” came to 108 µL/min/mg; in “in vitro [2]”, 532 µL/min/mg.

Compound `CC(C)CNC(=O)c1ccc2c(c1)N=C(c1ccc(Cl)s1)c1ccccc1S2` [drawing 1813] came in with an inhibition at 1 µM on hERG [6] of 26%.

The compound `CCCCNC(=O)c1ccc2c(c1)N=C(c1ccc(F)cn1)c1ccccc1S2` [drawing 545] showed a Feeding ID50 in data set [4] of 6 mg/kg.

Compound `O=C(NN1CCCCC1)c1ccc2c(c1)N=C(c1ccc(F)cc1)c1ccccc1S2` [drawing 1815] registered an inhibition at 1 µM against hERG [3] of 91%.

As for `O=C(NCc1ccc(F)cc1)c1ccc2c(c1)N=C(c1cccc(Cl)c1)c1ccccc1S2` [drawing 1662], the microsomal CLint at 1 μM in “in vitro [1]” was 27 µL/min/mg; in the data set “in vitro [2]” it was 76 µL/min/mg.

`CCCCNC(=O)c1ccc2c(c1)N=C(c1ccc(Cl)s1)c1ccccc1S2` [drawing 1824]: at 1 µM the inhibition at hERG [6] was 14%.

The compound `O=C(NN1CCCCC1)c1ccc2c(c1)N=C(c1ccc(Cl)cc1)c1ccccc1S2` [drawing 543] registered a Feeding ID50 in data set [4] of 2.4 mg/kg.

Compound `CC(C)CNC(=O)c1ccc2c(c1)N=C(c1ccc(Cl)cc1F)c1ccccc1S2` [drawing 542] displayed a Feeding ID50 in [4] of 5.8 mg/kg.

As for `O=C(NC1CCC(F)(F)CC1)c1ccc2c(c1)N=C(c1cccc(Cl)c1)c1ccccc1S2` [drawing 1838], on hERG [3], at 1 µM the inhibition was 62%.

In the case of `O=C(NCCCC(F)(F)F)c1ccc2c(c1)N=C(c1cccc(F)c1)c1ccccc1S2` [drawing 1817], on hERG [6], at 1 µM the inhibition was 45%.

As to `O=C(NCCCC(F)(F)F)c1ccc2c(c1)N=C(c1ccc(Cl)s1)c1ccccc1S2` [drawing 1810], the inhibition at 1 µM against hERG [6] came to 14%.

For `O=C(NC1CCCCC1)c1ccc2c(c1)N=C(c1cccc(Cl)c1)c1ccccc1S2` [drawing 1834], at hERG [6], testing at 1 µM gave an inhibition of 44%.

As to `COc1cccc(C2=Nc3cc(C(=O)NCCCC(F)(F)F)ccc3Sc3ccccc32)n1` [drawing 1823], at hERG [6], the inhibition at 1 µM came to 35%.

Regarding `O=C(NCc1cccnc1)c1ccc2c(c1)N=C(c1ccc(Cl)c(Cl)c1)c1ccccc1S2` [drawing 1830], the inhibition at 1 µM against hERG [6] was 40%.

Turning to `O=C(NCc1cccc(Cl)c1)c1ccc2c(c1)N=C(N1CCCCC1)c1ccccc1S2(=O)=O` [drawing 1798], the figures for the microsomal CLint at 1 μM in the data set “in vitro [1]” and in the data set “in vitro [2]” were 77 µL/min/mg and 217 µL/min/mg, respectively.

Take `CC(C)CNC(=O)c1ccc2c(c1)N=C(c1ccc(Cl)s1)c1ccccc1S2` [drawing 544]: the Feeding ID50 in [4] is 7.9 mg/kg.

For `CCOC(=O)N1CCC(NC(=O)c2ccc3c(c2)N=C(Cl)c2ccccc2S3)CC1` [Example 14, 4-[(11-chloro-dibenzo[b,f][1,4]thiazepine-8-carbonyl)-amino]-piperidine-1-carboxylic acid ethyl ester], at CB1 (mutant), the IC50 is 0.316 µM and the “% Inhibition” value came out at 94%. At CB1 (wild-type), the IC50 was 0.126 µM and the Emax is 88%.

Consider `CCCCNC(=O)c1ccc2c(c1)N=C(c1ccc(Cl)cc1)c1ccc(F)cc1S2` [drawing 1821], for which the inhibition at 1 µM at hERG [6] is 34%.

With `CCCCNC(=O)c1ccc2c(c1)N=C(c1ccc(Cl)cn1)c1ccccc1S2` [drawing 1839], at hERG [6], the inhibition at 1 µM is 67%.

For `C[C@@H]1CCC[C@H](C)N1NC(=O)c1ccc2c(c1)N=C(c1cccc(Cl)c1)c1ccccc1S2` [drawing 1720], the results for the microsomal CLint at 1 μM in “in vitro [1]”, in “in vitro [2]” and in “in vitro [5]” were 390 µL/min/mg, 254 µL/min/mg and 684 µL/min/mg, respectively.

Consider `CC(C)CCNC(=O)c1ccc2c(c1)N=C(c1cccc(F)c1)c1ccccc1S2` [drawing 1713], for which the microsomal CLint at 1 μM turned out to be 46 µL/min/mg in the data set “in vitro [1]”, 163 µL/min/mg in “in vitro [2]” and 202 µL/min/mg in “in vitro [5]”.

As for `O=C(NCc1ccco1)c1ccc2c(c1)N=C(c1cccc(F)c1)c1ccccc1S2` [drawing 1754], the intrinsic clearance (microsomal CLint) at 1 μM in the data set “in vitro [1]” worked out at 68 µL/min/mg; in “in vitro [2]”, 140 µL/min/mg; in “in vitro [5]” it was 197 µL/min/mg.

In the case of `CC(C)CNC(=O)c1ccc2c(c1)N=C(c1ccc(Cl)cc1)c1ccccc1S2` [drawing 1818], the inhibition at 1 µM against hERG [3] turned out to be 69%.

In [4], `O=C(NN1CCCCC1)c1ccc2c(c1)N=C(C1CCCCC1)c1ccccc1S2` [drawing 537] showed a Feeding ID50 of 12 mg/kg.

`O=C(NN1CCCCC1)c1ccc2c(c1)N=C(C1CCCCC1)c1ccccc1S2` [drawing 1828] returned an inhibition at 1 µM on hERG [6] of 29%.
